Laboratory results taken from US20260262643A1, “HERBICIDAL BENZOXAZINES” (FMC CORPORATION, priority 2022, published 2026).

What was measured:
[1] = test system: wheat; test: Test C postemergence; format: in vivo, Triticum aestivum; details: 10 days
Method in brief: (§1)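 Test material, in non-phytotoxic solvent with surfactant, was sprayed on the soil directly after seeding (preemergence) or on young plants of 2–10 cm with one to two leaves (postemergence). Greenhouse, 10 days; 0–100 visual control scale.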

[2] = test system: oat, wild; test: Test C postemergence; format: in vivo, Avena fatua; details: 10 days
Method in brief: as §1

[3] = test system: barnyardgrass; test: Test C preemergence; format: in vivo, Echinochloa crusgalli; details: 0 to 100 scale (0 no effect, 100 complete control)
Method in brief: as §1

[4] = test system: ragweed; test: Test C preemergence; format: in vivo, Ambrosia artemisiifolia; details: 0 to 100 scale (0 no effect, 100 complete control)
Method in brief: as §1

[5] = test system: ryegrass, Italian; test: Test C postemergence; format: in vivo, Lolium multiflorum; details: 10 days
Method in brief: as §1

[6] = test system: ryegrass, Italian; test: Test C preemergence; format: in vivo, Lolium multiflorum; details: 0 to 100 scale (0 no effect, 100 complete control)
Method in brief: as §1

[7] = test system: oat, wild; test: Test C preemergence; format: in vivo, Avena fatua; details: 0 to 100 scale (0 no effect, 100 complete control)
Method in brief: as §1

[8] = test system: sedge, umbrella; test: Test D flooded paddy test; format: in vivo, Cyperus difformis; details: 250 g ai/ha, applied to paddy water, visual rating after 13 to 14 days, scale 0 to 100 (0 no effect, 100 complete control)
Method: (§2) Plant species in the flooded paddy test selected from barnyardgrass (Echinochloa crus-galli), ducksalad (Heteranthera limosa), rice (Oryza sativa), and sedge, umbrella (small-flower umbrella sedge, Cyperus difformis) were grown to the 2-leaf stage for testing. At time of treatment, test pots were flooded to 3 cm above the soil surface, treated by application of test compounds directly to the paddy water, and then maintained at that water depth for the duration of the test. Treated plants and controls were maintained in a greenhouse for 13 to 14 days, after which time all species were compared to controls and visually evaluated. Plant response ratings, summarized in Table D, are based on a scale of 0 to 100 where 0 is no effect and 100 is complete control. A dash (-) response means no test result.

[9] = test system: ducksalad; test: Test D flooded paddy test; format: in vivo, Heteranthera limosa; details: 250 g ai/ha, applied to paddy water, visual rating after 13 to 14 days, scale 0 to 100 (0 no effect, 100 complete control)
Method: as §2

[10] = test system: blackgrass; test: Test C preemergence; format: in vivo, Alopecurus myosuroides; details: 0 to 100 scale (0 no effect, 100 complete control)
Method in brief: as §1

[11] = test system: rice; test: Test D flooded paddy test; format: in vivo, Oryza sativa; details: 250 g ai/ha, applied to paddy water, visual rating after 13 to 14 days, scale 0 to 100 (0 no effect, 100 complete control)
Method: as §2

[12] = test system: horseweed; test: Test C postemergence; format: in vivo, Erigeron canadensis; details: 10 days
Method in brief: as §1

[13] = test system: green foxtail; test: Test C preemergence; format: in vivo, Setaria viridis; details: 0 to 100 scale (0 no effect, 100 complete control)
Method in brief: as §1

[14] = test system: galium; test: Test C postemergence; format: in vivo, Galium aparine; details: 10 days
Method in brief: as §1

[15] = test system: corn; test: Test C postemergence; format: in vivo, Zea mays; details: 10 days
Method in brief: as §1

[16] = test system: barnyardgrass; test: Test D flooded paddy test; format: in vivo, Echinochloa crus-galli; details: 250 g ai/ha, applied to paddy water, visual rating after 13 to 14 days, scale 0 to 100 (0 no effect, 100 complete control)
Method: as §2

[17] = test system: corn; test: Test C preemergence; format: in vivo, Zea mays; details: 0 to 100 scale (0 no effect, 100 complete control)
Method in brief: as §1

[18] = test system: soybean; test: Test C postemergence; format: in vivo, Glycine max; details: 10 days
Method in brief: as §1

[19] = test system: blackgrass; test: Test C postemergence; format: in vivo, Alopecurus myosuroides; details: 10 days
Method in brief: as §1

[20] = test system: kochia; test: Test C postemergence; format: in vivo, Bassia scoparia; details: 10 days
Method in brief: as §1

[21] = test system: pigweed, palmer; test: Test C preemergence; format: in vivo, Amaranthus palmeri; details: 0 to 100 scale (0 no effect, 100 complete control)
Method in brief: as §1

[22] = test system: wheat; test: Test C preemergence; format: in vivo, Triticum aestivum; details: 0 to 100 scale (0 no effect, 100 complete control)
Method in brief: as §1

[23] = test system: pigweed, palmer; test: Test C postemergence; format: in vivo, Amaranthus palmeri; details: 10 days
Method in brief: as §1

[24] = test system: barnyardgrass; test: Test C postemergence; format: in vivo, Echinochloa crusgalli; details: 10 days
Method in brief: as §1

[25] = test system: ragweed; test: Test C postemergence; format: in vivo, Ambrosia artemisiifolia; details: 10 days
Method in brief: as §1

[26] = test system: soybean; test: Test C preemergence; format: in vivo, Glycine max; details: 0 to 100 scale (0 no effect, 100 complete control)
Method in brief: as §1

[27] = test system: kochia; test: Test C preemergence; format: in vivo, Bassia scoparia; details: 0 to 100 scale (0 no effect, 100 complete control)
Method in brief: as §1

[28] = 125 g ai/ha, postemergence, 0 to 100 scale, 0 no effect, 100 complete control
[29] = Postemergence, 500 g ai/ha, visual 0 to 100 scale (0 no effect, 100 complete control)
[30] = Preemergence, 500 g ai/ha, visual rating after 10 days
[31] = Test C, preemergence, 125 g ai/ha

`COC[C@H]1CN(C(=O)c2cc(-n3cncn3)ccc2OC)c2cccc(Cl)c2O1` [Compound 234] was tested, and the “Plant response rating, Wheat” value [1, 28] was 50, the “Plant response rating, Wheat” value [1, 29] was 80 and the “Plant response rating, Oat, Wild” value [2, 28] was 50. For the same compound, the “Plant response rating, Oat, Wild” value [2, 29] was 80, the “Plant response rating, Barnyardgrass” value [3, 30] was 100 and the “Barnyardgrass plant response rating” value [3, 31] was 90. For the same compound, the “Plant response rating, Ragweed” value [4, 30] was 50, the “Ragweed plant response rating” value [4, 31] was 50 and the “Plant response rating, Ryegrass, Italian” value [5, 28] was 90. For the same compound, the “Plant response rating, Ryegrass, Italian” value [5, 29] was 90, the “Plant response rating, Ryegrass, Italian” value [6, 30] was 90 and the “Ryegrass, Italian plant response rating” value [6, 31] was 80. The “Plant response rating, Oat, Wild” value [7, 30] was 70, the “Oat, Wild plant response rating” value [7, 31] was 50 and the “Plant response rating, Sedge, Umbrella (Flood)” value [8] was 100. The “Plant response rating, Ducksalad (Flood)” value [9] was 100, the “Plant response rating, Blackgrass” value [10, 30] was 80 and the “Blackgrass plant response rating” value [10, 31] was 70. For the same compound, the “Plant response rating, Rice (Flood)” value [11] was 0, the “Plant response rating, Horseweed” value [12, 28] was 20 and the “Plant response rating, Horseweed” value [12, 29] was 20. The “Plant response rating, Foxtail, Green” value [13, 30] was 100, the “Foxtail, Green plant response rating” value [13, 31] was 100 and the “Plant response rating, Galium” value [14, 28] was 100. For the same compound, the “Plant response rating, Galium” value [14, 29] was 100, the “Plant response rating, Corn” value [15, 28] was 70 and the “Plant response rating, Corn” value [15, 29] was 90. The “Plant response rating, Barnyardgrass (Flood)” value [16] was 75, the “Plant response rating, Corn” value [17, 30] was 10 and the “Corn plant response rating” value [17, 31] was 10. For the same compound, the “Plant response rating, Soybean” value [18, 28] was 100, the “Plant response rating, Soybean” value [18, 29] was 100 and the “Plant response rating, Blackgrass” value [19, 28] was 80. The “Plant response rating, Blackgrass” value [19, 29] was 90, the “Plant response rating, Kochia” value [20, 28] was 60 and the “Plant response rating, Kochia” value [20, 29] was 80. For the same compound, the “Plant response rating, Pigweed, Palmer” value [21, 30] was 90, the “Pigweed, Palmer plant response rating” value [21, 31] was 60 and the “Plant response rating, Wheat” value [22, 30] was 80. For the same compound, the “Wheat plant response rating” value [22, 31] was 40, the “Plant response rating, Pigweed, Palmer” value [23, 28] was 30 and the “Plant response rating, Pigweed, Palmer” value [23, 29] was 70. The “Plant response rating, Barnyardgrass” value [24, 28] was 60, the “Plant response rating, Barnyardgrass” value [24, 29] was 100 and the “Plant response rating, Ragweed” value [25, 28] was 50. For the same compound, the “Plant response rating, Ragweed” value [25, 29] was 70, the “Plant response rating, Soybean” value [26, 30] was 100 and the “Soybean plant response rating” value [26, 31] was 90. The “Plant response rating, Kochia” value [27, 30] was 60 and the “Kochia plant response rating” value [27, 31] was 30.
